In publication PMC8657075 (Journal of biotechnology, 2021):

Key:
[1] = target: T1, dopamine transporter (DAT) (Rattus norvegicus, UniProt P23977); experiment: [3H]GBR […] radioligand displacement, rat striatal membranes; assay type: binding
[2] = target: T1, dopamine transporter (DAT); experiment: [3H]GBR […] radioligand displacement; assay type: binding

T1 sequence (P23977 whole entry): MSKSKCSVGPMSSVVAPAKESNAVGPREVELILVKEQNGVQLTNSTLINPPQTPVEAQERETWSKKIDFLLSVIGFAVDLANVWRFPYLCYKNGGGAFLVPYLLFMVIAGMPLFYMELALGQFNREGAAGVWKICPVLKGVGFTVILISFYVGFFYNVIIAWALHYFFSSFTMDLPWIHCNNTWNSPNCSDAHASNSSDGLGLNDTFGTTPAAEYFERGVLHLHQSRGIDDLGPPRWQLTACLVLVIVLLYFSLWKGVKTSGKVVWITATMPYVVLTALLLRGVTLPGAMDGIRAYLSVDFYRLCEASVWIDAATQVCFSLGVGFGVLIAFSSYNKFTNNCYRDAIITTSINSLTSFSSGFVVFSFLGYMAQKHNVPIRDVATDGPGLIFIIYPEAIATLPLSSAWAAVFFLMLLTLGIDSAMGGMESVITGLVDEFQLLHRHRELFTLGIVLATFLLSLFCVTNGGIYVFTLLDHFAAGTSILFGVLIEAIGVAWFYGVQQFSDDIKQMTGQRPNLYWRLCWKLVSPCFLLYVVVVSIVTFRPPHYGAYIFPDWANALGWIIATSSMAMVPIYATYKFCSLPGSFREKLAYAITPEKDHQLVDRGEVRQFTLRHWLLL

Compound	Ki [1]	Ki [2]
CN1CCCC2C(c3ccccc3)C(C3=NCCCC3)C(c3ccccc3)CC21 (centres unmarked) [lobinaline]	2.54 µM	–
lobinaline N-oxide	–	132 µM
